Experimental data as given in ChEMBL document CHEMBL1201862, “PubChem BioAssay data set” (2004).
One block for each compound: values may come before it. Activity calls are given as the source filed them.

What was measured:
Ion channel NompC = Ion channel NompC (Danio rerio, UniProt Q7T1G6); assay: Dose response cell-based high-throughput screening assay for agonists of the transient receptor potential channel N1 (TRPN1). [Related pubchem assays (depositor defined):AID1424, AID1448]; format: functional
[1] = control 3'UTR Renilla luciferase suppression, dose response, counter-screen for Shn3 inhibitor project, cell-based, Clone20-Shn3RL, cherry-picked (AID 624133); format: functional
[2] = Shn3 3'UTR reporter inhibitors, dose response, cell-based, Clone20 osteoblasts, firefly luciferase, cherry-picked (AID 624132); format: functional;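 note: firefly luciferase luminescence from reporter carrying the Shn3 3'UTR in osteoblasts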
[3] = HepG2 cell cytotoxicity, dose response, cytotoxicity control for Shn3 inhibitor project, CellTiter-Glo, cherry-picked (AID 624134); format: functional, cell-based
Mucolipin-3 = Mucolipin-3 (Homo sapiens, UniProt Q8TDD5); assay: Fluorescence counterscreen assay for […] agonists: dose response cell-based high-throughput screening assay to identify agonists of the transient receptor potential channel ML3 (TRPML3). [Related pubchem assays: 1424, 1448 ]; format: functional
[4] = target: T1, Kappa-type opioid receptor (Homo sapiens, UniProt P41145); assay: KOR antagonists by imaging, SAR follow-up, image-based (AID 2348); format: functional
[5] = target: T2, Delta-type opioid receptor (Homo sapiens, UniProt P41143); assay: DOR agonists, SAR follow-up, image-based (AID 2370); format: functional
[6] = target: T1, Kappa-type opioid receptor; assay: KOR agonist analogs, imaging readout, SAR follow-up, image-based (AID 2359); format: functional
[7] = target: T1, Kappa-type opioid receptor; format: functional
[8] = target: T1, Kappa-type opioid receptor; assay: SAR analysis of small molecule agonists of the kappa opioid receptor via a luminescent beta-arrestin assay. [Related pubchem assays (depositor defined):AID1777, AID1786, AID1966, AID2133, AID2136, AID2348, AID2352, AID2357, AID2359, AID2370, AID2420, AID2478, AID2491, AID2492, AID2493, AID2497, AID2498, AID2500, AID449737, AID488822, AID488842]; format: functional
[9] = target: T2, Delta-type opioid receptor; assay: DOR antagonists, SAR follow-up, image-based (AID 2357); format: functional
[10] = target: T2, Delta-type opioid receptor; assay: HTS Image-Based Screen for Antagonists of the DOR Receptor. [Related pubchem assays (depositor defined):AID1777, AID1785, AID1786, AID2133]; format: functional
[11] = target: T1, Kappa-type opioid receptor; format: functional; remark: listed apart in the source
Mu-type opioid receptor [12] = target: T3, Mu-type opioid receptor (Homo sapiens, UniProt P35372); assay: HTS Image-Based Screen for Agonists of the MOR Receptor. [Related pubchem assays (depositor defined):AID1777, AID1785, AID1786, AID2133]; format: functional
[13] = target: T2, Delta-type opioid receptor; assay: HTS Image-Based Screen for Agonists of the DOR Receptor. [Related pubchem assays (depositor defined):AID1777, AID1786, AID2133]; format: functional
Mu-type opioid receptor [14] = target: T3, Mu-type opioid receptor; assay: MOR antagonists, SAR follow-up, image-based (AID 2420); format: functional;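 note: compounds added before stimulation of receptor with agonist DAMGO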
Mu-type opioid receptor [15] = target: T3, Mu-type opioid receptor; assay: MOR agonists by imaging, SAR follow-up, image-based (AID 2352); format: functional
[16] = target: T1, Kappa-type opioid receptor; format: functional; remark: listed apart in the source
[17] = target: Intestinal-type alkaline phosphatase (Homo sapiens, UniProt P09923); assay: activation of human intestinal alkaline phosphatase – biochemical, dose response (AID 488873); format: functional
[18] = target: T4, Alkaline phosphatase, tissue-nonspecific isozyme (Homo sapiens, UniProt P05186); assay: TNAP enzyme inhibition by screening hits, dose response, selectivity assay for mouse IAP inhibitor project, biochemical, human TNAP, uHTS hits (AID 488906); format: functional
T4 sequence (P05186 whole entry): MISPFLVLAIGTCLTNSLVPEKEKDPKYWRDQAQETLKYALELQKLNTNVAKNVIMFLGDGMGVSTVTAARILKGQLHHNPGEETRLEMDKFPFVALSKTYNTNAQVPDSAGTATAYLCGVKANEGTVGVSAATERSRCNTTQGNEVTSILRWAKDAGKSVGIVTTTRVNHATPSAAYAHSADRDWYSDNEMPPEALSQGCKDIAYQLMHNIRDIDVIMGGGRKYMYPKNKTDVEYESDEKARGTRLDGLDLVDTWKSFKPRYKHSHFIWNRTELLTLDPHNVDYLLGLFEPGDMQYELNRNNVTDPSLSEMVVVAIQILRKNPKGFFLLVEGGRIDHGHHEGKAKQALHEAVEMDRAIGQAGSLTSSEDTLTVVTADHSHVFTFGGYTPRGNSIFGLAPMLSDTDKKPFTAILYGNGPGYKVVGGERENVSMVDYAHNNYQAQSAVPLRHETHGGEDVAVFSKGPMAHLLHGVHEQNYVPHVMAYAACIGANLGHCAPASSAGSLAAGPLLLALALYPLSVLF

[19] = target: Intestinal-type alkaline phosphatase (Mus musculus, UniProt P24822); assay: PubChem AID 488785; format: functional
[20] = target: T1, Kappa-type opioid receptor; assay: SAR analysis of small molecule agonists of the kappa opioid receptor via a luminescent beta-arrestin assay - Set 3. [Related pubchem assays (depositor defined):AID1777, AID1785, AID1786, AID1966, AID2133, AID2136, AID2284, AID2500]; format: functional

T1 sequence (P41145 whole entry): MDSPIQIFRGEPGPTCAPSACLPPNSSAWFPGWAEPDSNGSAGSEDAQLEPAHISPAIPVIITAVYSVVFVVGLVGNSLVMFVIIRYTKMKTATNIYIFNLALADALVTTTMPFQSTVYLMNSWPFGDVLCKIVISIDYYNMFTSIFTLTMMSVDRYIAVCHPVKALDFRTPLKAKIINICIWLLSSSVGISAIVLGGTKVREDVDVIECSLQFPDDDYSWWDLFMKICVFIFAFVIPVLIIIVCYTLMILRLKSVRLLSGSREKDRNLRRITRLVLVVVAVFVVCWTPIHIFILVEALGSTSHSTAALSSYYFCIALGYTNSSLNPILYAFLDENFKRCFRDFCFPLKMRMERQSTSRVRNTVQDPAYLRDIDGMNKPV
T2 sequence (P41143 whole entry): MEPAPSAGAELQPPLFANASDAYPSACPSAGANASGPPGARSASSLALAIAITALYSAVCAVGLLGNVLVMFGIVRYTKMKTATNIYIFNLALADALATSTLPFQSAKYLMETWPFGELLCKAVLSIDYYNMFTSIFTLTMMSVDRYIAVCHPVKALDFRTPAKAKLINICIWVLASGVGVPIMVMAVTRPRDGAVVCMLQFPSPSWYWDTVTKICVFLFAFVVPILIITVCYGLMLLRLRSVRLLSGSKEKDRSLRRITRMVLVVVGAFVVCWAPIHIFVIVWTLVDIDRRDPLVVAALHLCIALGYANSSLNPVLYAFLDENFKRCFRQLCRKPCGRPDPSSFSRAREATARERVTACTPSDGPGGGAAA
T3 sequence (P35372 whole entry): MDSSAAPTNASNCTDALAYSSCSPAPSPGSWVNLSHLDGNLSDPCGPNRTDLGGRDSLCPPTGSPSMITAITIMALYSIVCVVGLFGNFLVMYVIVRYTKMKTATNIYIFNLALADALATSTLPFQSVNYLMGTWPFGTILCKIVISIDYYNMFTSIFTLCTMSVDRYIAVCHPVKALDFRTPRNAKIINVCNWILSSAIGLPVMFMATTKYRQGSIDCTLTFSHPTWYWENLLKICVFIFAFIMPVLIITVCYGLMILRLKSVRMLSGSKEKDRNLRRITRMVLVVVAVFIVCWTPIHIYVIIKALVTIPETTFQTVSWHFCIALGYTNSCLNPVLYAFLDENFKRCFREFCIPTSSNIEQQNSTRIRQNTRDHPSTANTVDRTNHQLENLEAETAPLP
Ion channel NompC, sequence (Q7T1G6 whole entry): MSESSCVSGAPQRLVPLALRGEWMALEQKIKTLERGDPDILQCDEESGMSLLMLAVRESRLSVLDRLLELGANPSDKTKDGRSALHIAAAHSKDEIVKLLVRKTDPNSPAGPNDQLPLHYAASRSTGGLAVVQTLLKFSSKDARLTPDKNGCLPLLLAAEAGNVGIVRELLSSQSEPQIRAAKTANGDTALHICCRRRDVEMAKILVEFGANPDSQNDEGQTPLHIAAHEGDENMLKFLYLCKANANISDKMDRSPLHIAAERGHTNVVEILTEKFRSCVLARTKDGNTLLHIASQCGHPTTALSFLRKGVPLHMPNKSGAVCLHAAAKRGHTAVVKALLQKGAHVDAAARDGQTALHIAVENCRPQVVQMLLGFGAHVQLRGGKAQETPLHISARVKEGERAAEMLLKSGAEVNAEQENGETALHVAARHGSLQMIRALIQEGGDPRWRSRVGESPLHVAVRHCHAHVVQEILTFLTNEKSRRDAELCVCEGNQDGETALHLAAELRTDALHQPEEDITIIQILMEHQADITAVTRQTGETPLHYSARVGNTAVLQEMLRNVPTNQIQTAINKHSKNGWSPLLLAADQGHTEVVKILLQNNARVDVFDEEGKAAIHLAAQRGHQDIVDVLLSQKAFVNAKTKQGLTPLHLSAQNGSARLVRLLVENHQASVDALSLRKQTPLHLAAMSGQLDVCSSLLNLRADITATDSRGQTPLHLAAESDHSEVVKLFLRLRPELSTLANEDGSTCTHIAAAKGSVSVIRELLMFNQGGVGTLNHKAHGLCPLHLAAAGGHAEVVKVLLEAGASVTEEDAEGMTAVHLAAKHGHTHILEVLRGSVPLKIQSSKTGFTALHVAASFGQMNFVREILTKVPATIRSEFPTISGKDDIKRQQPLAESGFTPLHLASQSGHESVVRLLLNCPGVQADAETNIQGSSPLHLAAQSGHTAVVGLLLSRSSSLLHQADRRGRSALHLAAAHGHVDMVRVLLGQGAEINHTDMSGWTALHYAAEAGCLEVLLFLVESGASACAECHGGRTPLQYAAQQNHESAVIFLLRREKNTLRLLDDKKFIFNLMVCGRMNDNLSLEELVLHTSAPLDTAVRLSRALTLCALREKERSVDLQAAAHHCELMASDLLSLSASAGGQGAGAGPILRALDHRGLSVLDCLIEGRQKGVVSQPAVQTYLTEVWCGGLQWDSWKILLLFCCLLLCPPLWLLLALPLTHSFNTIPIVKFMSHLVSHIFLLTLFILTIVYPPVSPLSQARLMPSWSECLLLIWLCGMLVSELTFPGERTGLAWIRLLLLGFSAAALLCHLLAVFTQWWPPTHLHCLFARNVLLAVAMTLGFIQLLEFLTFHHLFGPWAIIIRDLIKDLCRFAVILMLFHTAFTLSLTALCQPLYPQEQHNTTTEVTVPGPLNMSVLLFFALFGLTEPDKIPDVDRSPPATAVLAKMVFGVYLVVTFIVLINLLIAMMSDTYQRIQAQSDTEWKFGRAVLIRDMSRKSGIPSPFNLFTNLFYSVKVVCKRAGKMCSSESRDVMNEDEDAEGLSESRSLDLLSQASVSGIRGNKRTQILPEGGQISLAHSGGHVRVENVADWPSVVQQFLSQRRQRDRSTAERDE
Intestinal-type alkaline phosphatase (Homo sapiens, UniProt P09923), sequence (P09923 whole entry): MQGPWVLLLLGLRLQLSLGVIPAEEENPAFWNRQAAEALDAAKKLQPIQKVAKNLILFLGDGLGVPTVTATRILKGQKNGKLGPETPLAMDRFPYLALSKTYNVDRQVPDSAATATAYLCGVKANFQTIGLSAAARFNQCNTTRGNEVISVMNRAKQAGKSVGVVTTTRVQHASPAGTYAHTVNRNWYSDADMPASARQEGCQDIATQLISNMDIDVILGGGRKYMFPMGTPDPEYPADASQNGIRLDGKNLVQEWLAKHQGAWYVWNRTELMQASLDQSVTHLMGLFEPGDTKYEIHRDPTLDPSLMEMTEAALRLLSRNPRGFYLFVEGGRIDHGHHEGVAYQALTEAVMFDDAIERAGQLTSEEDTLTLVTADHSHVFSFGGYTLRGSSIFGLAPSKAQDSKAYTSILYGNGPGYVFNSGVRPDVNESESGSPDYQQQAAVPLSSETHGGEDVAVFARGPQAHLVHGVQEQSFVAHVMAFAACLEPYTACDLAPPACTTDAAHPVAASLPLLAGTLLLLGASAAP
Intestinal-type alkaline phosphatase (Mus musculus, UniProt P24822), sequence (P24822 whole entry): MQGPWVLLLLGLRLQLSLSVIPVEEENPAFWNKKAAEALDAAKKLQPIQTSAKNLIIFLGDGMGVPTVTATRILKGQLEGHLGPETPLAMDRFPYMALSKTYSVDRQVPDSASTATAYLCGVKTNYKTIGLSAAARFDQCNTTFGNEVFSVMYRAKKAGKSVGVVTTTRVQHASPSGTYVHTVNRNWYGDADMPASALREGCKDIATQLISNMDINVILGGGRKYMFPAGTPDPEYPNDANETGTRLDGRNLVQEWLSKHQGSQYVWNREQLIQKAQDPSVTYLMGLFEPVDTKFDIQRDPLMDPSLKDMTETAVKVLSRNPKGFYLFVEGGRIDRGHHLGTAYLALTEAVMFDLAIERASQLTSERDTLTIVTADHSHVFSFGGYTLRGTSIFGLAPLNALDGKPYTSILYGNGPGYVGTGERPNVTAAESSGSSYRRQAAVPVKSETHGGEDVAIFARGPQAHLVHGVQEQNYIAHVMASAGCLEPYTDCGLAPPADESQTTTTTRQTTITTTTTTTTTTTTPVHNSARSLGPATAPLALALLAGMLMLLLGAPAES
Mucolipin-3, sequence (Q8TDD5 whole entry): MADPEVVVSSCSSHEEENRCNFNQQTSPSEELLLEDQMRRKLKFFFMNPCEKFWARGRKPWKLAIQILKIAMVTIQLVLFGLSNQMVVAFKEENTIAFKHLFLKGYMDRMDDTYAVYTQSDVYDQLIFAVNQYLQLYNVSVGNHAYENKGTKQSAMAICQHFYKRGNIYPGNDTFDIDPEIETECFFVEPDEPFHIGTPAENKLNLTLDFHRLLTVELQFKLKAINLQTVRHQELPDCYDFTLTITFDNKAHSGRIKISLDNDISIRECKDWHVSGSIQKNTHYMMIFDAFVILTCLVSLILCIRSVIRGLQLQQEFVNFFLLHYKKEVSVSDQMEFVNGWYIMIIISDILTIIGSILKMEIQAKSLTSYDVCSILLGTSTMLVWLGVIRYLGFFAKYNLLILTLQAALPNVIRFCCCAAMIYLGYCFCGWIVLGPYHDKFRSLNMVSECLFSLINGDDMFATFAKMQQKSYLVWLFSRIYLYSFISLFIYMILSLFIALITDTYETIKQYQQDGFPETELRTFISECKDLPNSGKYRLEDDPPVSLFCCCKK

Structure (SMILES): Cc1ccc([N+](=O)[O-])cc1NC(=O)Nc1cccc(F)c1
- EC50 (Ion channel NompC): > 29.9 µM (inactive)
- AC50 [1]: 2.13 µM (active)
- AC50 [2]: 2.21 µM (active)
- AC50 [3]: 7.82 µM (active)
- EC50 (Mucolipin-3): > 29.9 µM (not active)

- IC50 [4]: > 32 µM (inactive)
- EC50 [5]: > 32 µM (inactive)
- EC50 [6]: < 0.06 µM (active)
- IC50 [7]: > 5 µM (inactive)
- EC50 [8]: 0.116 µM (active)
- IC50 [9]: > 32 µM (inactive)
- IC50 [10]: > 32 µM (inactive)
- EC50 [11]: < 0.5 µM
- EC50 (Mu-type opioid receptor [12]): > 32 µM (inactive)
- EC50 [13]: > 32 µM (inactive)
- IC50 (Mu-type opioid receptor [14]): > 32 µM (inactive)
- EC50 (Mu-type opioid receptor [15]): > 32 µM (inactive)
- EC50 [16]: 0.103 µM
Structure (SMILES): O=C(c1ccccn1)N(Cc1cccs1)C1(C(=O)NC2CCCCC2)CCCCC1

- EC50 [17]: > 100 µM (inactive)
- IC50 [18]: 7.87 µM (active)
- IC50 [19]: 9.88 µM (active)
Structure (SMILES): CN(CC(=O)Nc1cccc(Cl)c1)S(=O)(=O)c1ccc2[nH]c(=O)oc2c1

- EC50 [20]: > 20 µM (inactive)
Structure (SMILES): FC(F)(F)c1cc(CSc2nnc(-c3ccncc3)n2Cc2ccco2)ccc1Cl
